Measured values reported in patent US20140350081A1, “INSECT G-COUPLED RECEPTORS USEFUL AS TARGETS FOR INSECTICIDES AND COMPOUNDS AND REAGENTS IDENTIFIED USING THE SAME” (priority 2011, published 2014).
Structures can show the parent of a compound that is named as a salt. Where two headings read alike, the source gives them in different places.

Assays:
[1] = target: T1, AaDOP2 (Aedes aegypti, UniProt H6D5H2); test: LOPAC1280 antagonist screen in HEK-CRELuc-Aadop2 cells; assay type: cell-based; settings: for % inhibition of DA activity (Aedes cell-based assay screen): LOPAC1280 screen hits
T1 sequence (H6D5H2 entry or part of it): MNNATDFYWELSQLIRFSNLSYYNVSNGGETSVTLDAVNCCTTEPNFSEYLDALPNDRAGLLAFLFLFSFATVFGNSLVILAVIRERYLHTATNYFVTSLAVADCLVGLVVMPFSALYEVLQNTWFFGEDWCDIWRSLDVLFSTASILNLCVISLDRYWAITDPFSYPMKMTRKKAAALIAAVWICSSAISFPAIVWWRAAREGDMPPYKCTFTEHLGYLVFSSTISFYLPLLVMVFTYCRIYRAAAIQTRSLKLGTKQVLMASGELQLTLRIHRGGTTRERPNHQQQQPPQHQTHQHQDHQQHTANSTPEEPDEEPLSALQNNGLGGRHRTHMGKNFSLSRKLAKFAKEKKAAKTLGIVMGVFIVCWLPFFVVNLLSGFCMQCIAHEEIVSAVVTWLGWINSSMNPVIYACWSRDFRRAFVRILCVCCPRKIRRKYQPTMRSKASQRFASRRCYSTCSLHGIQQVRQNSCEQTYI

[2] = target: Isdop2 (Ixodes scapularis, UniProt A0ACM8DGL0); test: cell-based; settings: for inhibition at 10 µM: read-out: % Inhibition (of response to dopamine), Isdop2 screen
Sequence of Isdop2 (A0ACM8DGL0 entry or part of it): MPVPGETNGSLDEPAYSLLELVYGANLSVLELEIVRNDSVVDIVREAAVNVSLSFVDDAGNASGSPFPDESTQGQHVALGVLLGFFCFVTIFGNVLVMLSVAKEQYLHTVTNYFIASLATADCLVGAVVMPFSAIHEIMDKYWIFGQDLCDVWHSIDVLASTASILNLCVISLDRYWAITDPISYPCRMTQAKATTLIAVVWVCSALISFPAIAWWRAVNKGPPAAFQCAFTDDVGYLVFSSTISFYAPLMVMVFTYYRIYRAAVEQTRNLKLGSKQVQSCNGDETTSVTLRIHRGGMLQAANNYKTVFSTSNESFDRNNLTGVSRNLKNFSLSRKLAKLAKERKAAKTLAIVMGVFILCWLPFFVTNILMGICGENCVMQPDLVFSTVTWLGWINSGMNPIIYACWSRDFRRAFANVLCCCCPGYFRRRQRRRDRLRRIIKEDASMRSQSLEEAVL

[3] = target: T1, AaDOP2; test: HTRF cAMP accumulation concentration response assay (Cisbio Dynamic 2); assay type: cell-based
[4] = test system: Ae. aegypti L3 larvae; test: whole plant or invertebrate; settings: Aedes aegypti
[5] = 10 μM compound, 300 nM dopamine, quadruplicate
[6] = 10 μM compound, footnote 3 mM dopamine
[7] = AaDOP2 expressing cells in the presence of dopamine, No Inhibition = <10% inhibition at 3 μM test compound
[8] = 24 h, read-out: Toxicity to Aedes aegypti larvae (mortality) 24 hours, 400 μM, L3 larvae, three independent experiments
[9] = 48 h, read-out: Toxicity to Aedes aegypti larvae (mortality) 48 hours, 400 μM, L3 larvae, three independent experiments
[10] = 72 h, read-out: Toxicity to Aedes aegypti larvae (mortality) 72 hours, 400 μM, L3 larvae, three independent experiments
[11] = AaDOP2 expressing cells in the presence of dopamine, No Inhibition = <10% inhibition at 3 μM test compound, read-out: IC50 ± S.E.M. (nM), HTRF cAMP assay
[12] = in vitro Concentration Response Curve assay, n = 2, relative to control antagonist Amitriptyline, read-out: Avg IC50

Structure (SMILES): CC(CN(C)C)CN1c2ccccc2CCc2ccccc21 (racemic) [Trimipramine, (±)-3-(10,11-dihydro-5H-dibenzo[b,f]azepin-5-yl)-N,N,2-trimethylpropan-1-]
- % of the SCH23390 effect [1, 5]: 87%
- % inhibition of DA activity (Aedes cell-based assay screen) [1]: 87%
- inhibition at 10 µM [2]: 86%

Structure (SMILES): CN1C2CCC1CC(OC(c1ccccc1)c1ccc(Cl)cc1)C2.Cl (stereo not drawn) [4′-Chloro-3-alpha-(diphenylmethoxy) tropane hydrochloride]
- % of the SCH23390 effect [1, 5]: 85%
- % Inhibition (of response to dopamine), Isdop2 screen [2, 6]: 80%

Structure (SMILES): CC[C@@]1(O)C(=O)OCc2c1cc1n(c2=O)Cc2cc3ccccc3nc2-1 [(S)-(+)-Camptothecin]
- % of the SCH23390 effect [1, 5]: 93%
- % Inhibition (of response to dopamine), Isdop2 screen [2, 6]: 97%

Structure (SMILES): CNCC[C@@H](Oc1ccccc1C)c1ccccc1 [Atomoxetine]
- IC50 ± S.E.M. (nM), HTRF cAMP assay [3, 7]: No Inhibition^a
- mortality at 400 µM [4, 8]: 20%
- mortality at 400 µM [4, 9]: 30%
- mortality at 400 µM [4, 10]: 30%

Structure (SMILES): CNCCCN1c2ccccc2CCc2ccccc21 [Desipramine]
- IC50 [3, 11]: 3300 nM
- mortality at 400 µM [4, 8]: 30%
- mortality at 400 µM [4, 9]: 40%
- mortality at 400 µM [4, 10]: 43%

Structure (SMILES): Cc1nc2sccn2c(=O)c1CCN1CCC(=C(c2ccccc2)c2ccc(F)cc2)CC1 [Diacylglycerol kinase inhibitor I]
- % of the SCH23390 effect [1, 5]: 90%
- % Inhibition (of response to dopamine), Isdop2 screen [2]: 69%

Structure (SMILES): CC[C@H]1CN2CCc3cc(OC)c(OC)cc3[C@@H]2C[C@@H]1C[C@H]1NCCc2cc(OC)c(OC)cc21 [Emetine dihydrochloride hydrate]
- % of the SCH23390 effect [1]: 86%
- inhibition at 10 µM [2]: 100%

Structure (SMILES): COCCCC/C(=N\OCCN)c1ccc(C(F)(F)F)cc1 [Fluvoxamine]
- IC50 ± S.E.M. (nM), HTRF cAMP assay [3, 7]: No Inhibition^a
- mortality at 400 µM [4, 8]: 27%
- mortality at 400 µM [4, 9]: 33%
- mortality at 400 µM [4, 10]: 43%

Structure (SMILES): CC(=O)[C@]1(O)Cc2c(O)c3c(c(O)c2[C@@H](O[C@H]2C[C@H](N)[C@H](O)[C@H](C)O2)C1)C(=O)c1ccccc1C3=O [Idarubicin]
- % of the SCH23390 effect [1]: 83%
- inhibition at 10 µM [2]: 97%

Structure (SMILES): O=C1Cc2c([nH]c3ccc(Br)cc23)-c2ccccc2N1 [Kenpaullone]
- % of the SCH23390 effect [1, 5]: 83%
- inhibition at 10 µM [2]: 68%

Structure (SMILES): CN1CCC(=C2c3ccccc3CC(=O)c3sccc32)CC1 [Ketotifen, 4-(1-methylpiperidin-4-ylidene)-4,9-dihydro-10H-benzo[4,5]cyclohepta[1,2-b]thiophen-10-one]
- % of the SCH23390 effect [1, 5]: 96%
- % inhibition of DA activity (Aedes cell-based assay screen) [1]: 96%
- IC50 [3, 11]: 750 ± 180 nM

Structure (SMILES): CN1CCc2ccccc2Cc2[nH]c3ccccc3c2CC1 [LE 300, 7-Methyl-6,7,8,9,14,15-hexahydro-5H-benz[d]indolo[2,3-g]azecine]
- % of the SCH23390 effect [1]: 99%
- % inhibition of DA activity (Aedes cell-based assay screen) [1]: 99%
- inhibition at 10 µM [2]: 100%

Structure (SMILES): CC1(C)C(=O)N(CCN2CCC(C(=O)c3ccc(F)cc3)CC2)c2ccccc21.Cl [LY310762, 1-[2-[4-(4-fluorobenzoyl)piperidin-1-yl]ethyl]-3,3-dimethylindol-2-one]
- % of the SCH23390 effect [1]: 81%
- % inhibition of DA activity (Aedes cell-based assay screen) [1]: 81%
- mortality at 400 µM ([4]; 0.5 h, read-out: percent mortality 0.5 hr, 400 uM, L3 larvae, value for this scoring time): 0%
- mortality at 400 µM ([4]; 1 h, read-out: percent mortality 1 hr, 400 uM, L3 larvae, per scoring time): 0%
- mortality at 400 µM ([4]; 2 h, read-out: percent mortality 2 hr, 400 uM, L3 larvae, per scoring time): 0%
- mortality at 400 µM ([4]; 3 h, read-out: percent mortality 3 hr, 400 uM, L3 larvae, per scoring time): 0%
- mortality at 400 µM ([4]; 4 h, read-out: percent mortality 4 hr, 400 uM, L3 larvae, per scoring time): 0%
- mortality at 400 µM [4, 8]: 0%
- mortality at 400 µM ([4]; 24 h, read-out: percent mortality 24 hr, 400 uM, L3 larvae, per scoring time): 0%
- mortality at 400 µM [4, 9]: 3%
- mortality at 400 µM ([4]; 48 h, read-out: percent mortality 48 hr, 400 uM, L3 larvae, per scoring time): 10%
- mortality at 400 µM ([4]; 72 h, read-out: Cumulative % Mortality (72 hrs), 400 uM, L3 larvae): 10%
- mortality at 400 µM [4, 10]: 3%
- mortality at 400 µM ([4]; 72 h, read-out: percent mortality 72 hr, 400 uM, L3 larvae, per scoring time): 0%
- mortality at 400 µM ([4]; […], read-out: percent mortality […], 400 uM, L3 larvae, per scoring time): 0%
- inhibition at 10 µM [2]: 72%

Structure (SMILES): O=C1c2c(O)ccc(O)c2C(=O)c2c(NCCNCCO)ccc(NCCNCCO)c21 [Mitoxantrone]
- % of the SCH23390 effect [1, 5]: 83%

Structure (SMILES): O=C1C(SCCO)=C(SCCO)C(=O)c2ccccc21 [NSC 95397]
- % of the SCH23390 effect [1, 5]: 83%
- % Inhibition (of response to dopamine), Isdop2 screen [2]: 93%

Structure (SMILES): O=C(Nc1ccc([N+](=O)[O-])cc1Cl)c1cc(Cl)ccc1O [Niclosamide]
- % of the SCH23390 effect [1, 5]: 95%
- inhibition at 10 µM [2]: 100%

Structure (SMILES): OCCN1CCN(CCCN2c3ccccc3Sc3ccc(Cl)cc32)CC1 [Perphenazine, 2-[4-[3-(2-chloro-10H-phenothiazin-10-yl)propyl]piperazin-1-yl]ethanol]
- % of the SCH23390 effect [1, 5]: 95%
- % inhibition of DA activity (Aedes cell-based assay screen) [1]: 95%
- IC50 ([3]; Avg IC50 (μM), in vitro Concentration Response Curve assay, n = 2, relative to control antagonist Amitriptyline): 101 nM
- inhibition at 10 µM [2]: 76%

Structure (SMILES): CCCCCCCCCCCCCC(=O)O[C@@H]1[C@@H](C)[C@@]2(O)[C@@H](C=C(CO)C[C@]3(O)C(=O)C(C)=C[C@@H]23)[C@@H]2C(C)(C)[C@]12OC(C)=O [Phorbol 12-myristate 13-acetate]
- % of the SCH23390 effect [1]: 88%
- % Inhibition (of response to dopamine), Isdop2 screen [2]: 75%

Structure (SMILES): Oc1cc(O)cc(/C=C/c2ccc(O)c(O)c2)c1 [Piceatannol]
- % of the SCH23390 effect [1, 5]: 98%
- inhibition at 10 µM [2]: 100%

Structure (SMILES): Cc1nc2ccccn2c(=O)c1CCN1CCC(C(=O)c2ccc(F)cc2)CC1 [Pirenperone, 3-[2-[4-(p-fluorobenzoyl)piperidino]ethyl]-2-methyl-4h-pyrido[1,2-a]pyrimidin-4-one]
- % of the SCH23390 effect [1, 5]: 90%
- % inhibition of DA activity (Aedes cell-based assay screen) [1]: 90%
- inhibition at 10 µM [2]: 87%

Structure (SMILES): CN(C)CCCN1c2ccccc2Sc2ccccc21 [Promazine, N,N-dimethyl-3-(10H-phenothiazin-10-yl)-propan-1-amine]
- % of the SCH23390 effect [1]: 88%
- % inhibition of DA activity (Aedes cell-based assay screen) [1]: 88%
- inhibition at 10 µM [2]: 87%

Structure (SMILES): CCC(=O)c1ccc2c(c1)N(CCCN(C)C)c1ccccc1S2 [Propionylpromazine, 1-[10-[3-(dimethylamino)propyl]phenothiazin-2-yl]propan-1-one]
- % of the SCH23390 effect [1, 5]: 85%
- % inhibition of DA activity (Aedes cell-based assay screen) [1]: 85%
- inhibition at 10 µM [2]: 94%

Structure (SMILES): CC(C)[C@H](CO)Nc1nc(Nc2cccc(Cl)c2)c2ncn(C(C)C)c2n1 [Purvalanol A]
- % of the SCH23390 effect [1, 5]: 93%
- % Inhibition (of response to dopamine), Isdop2 screen [2]: 84%

Structure (SMILES): Cc1nc2sccn2c(=O)c1CCN1CCC(=C(c2ccc(F)cc2)c2ccc(F)cc2)CC1 [Ritanserin, 6-[2-[4-[bis(4-fluorophenyl)methylidene]piperidin-1-yl]ethyl]-7-methyl-[1,3]thiazolo[2,3-b]pyrimidin-5-one]
- % of the SCH23390 effect [1, 5]: 83%
- % inhibition of DA activity (Aedes cell-based assay screen) [1]: 83%
- inhibition at 10 µM [2]: 77%

Structure (SMILES): COc1ccc(C(=O)Nc2nc(-c3ccc4c(c3)OCCO4)cs2)cc1OC [ST075014, N-(4-(2H,3H-benzo[3,4-e]1,4-dioxin-6-yl)(1,3-thiazol-2-yl))(3,4-dimethoxyphenyl)carboxamide]
- IC50 [3, 12]: 8310 nM

Structure (SMILES): COc1ccc2[nH]cc(CCNC(=O)C(=O)c3c(-c4ccccc4)n(C)c4ccccc34)c2c1 [ST077642, N-[2-(5-methoxyindol-3-yl)ethyl]-2-(1-methyl-2-phenylindol-3-yl)-2-oxoacetamide]
- IC50 [3, 12]: 17600 nM

Structure (SMILES): CN1CCc2c(c3ccccc3n2Cc2ccccc2)C1 [ST088437, 2-methyl-5-benzyl-1,2,3,4-tetrahydropyridino[4,3-b]indole]
- IC50 [3, 12]: 1970 nM

Structure (SMILES): CC(=O)c1ccc2c(c1)OCO2 [ST092311, 5-acetyl-2H-benzo[d]1,3-dioxolene]
- IC50 [3]: 5820 nM

Structure (SMILES): c1ccc(CCNc2nc(N3CCNCC3)nc3ccccc23)cc1 [ST095663, (phenylethyl)(2-piperazinylquinazolin-4-yl)amine]
- IC50 [3, 12]: 4840 nM

Structure (SMILES): CN1CCN(CC/C=C2/c3ccccc3Sc3ccc(S(=O)(=O)N(C)C)cc32)CC1 [Thiothixene, (9Z)-N,N-dimethyl-9-[3-(4-methylpiperazin-1-yl)propylidene]-9H-thioxanthene-2-sulfonamide]
- % of the SCH23390 effect [1]: 86%
- % inhibition of DA activity (Aedes cell-based assay screen) [1]: 86%
- inhibition at 10 µM [2]: 87%

Structure (SMILES): CN(C)CCOc1ccc(/C(=C(/CCCl)c2ccccc2)c2ccccc2)cc1 [Toremifene citrate salt, (Z)-2-(4-(4-Chloro-1,2-diphenyl-1-butenyl)phenoxy)-N,N-dimethylethanamine]
- IC50 [3]: 44900 nM

Structure (SMILES): CN(C)CCCN1c2ccccc2Sc2ccc(C(F)(F)F)cc21 [Triflupromazine, N,N-dimethyl-3-[2-(trifluoromethyl)-10H-phenothiazin-10-yl]propan-1-amine]
- % of the SCH23390 effect [1]: 88%
- % inhibition of DA activity (Aedes cell-based assay screen) [1]: 88%
- inhibition at 10 µM [2]: 83%

Structure (SMILES): COc1ccc(C(CN(C)C)C2(O)CCCCC2)cc1 (stereo not drawn) [Venlafaxine]
- IC50 ± S.E.M. (nM), HTRF cAMP assay [3, 7]: No Inhibition^a
- mortality at 400 µM [4, 8]: 3%
- mortality at 400 µM [4, 9]: 7%
- mortality at 400 µM [4, 10]: 13%

Structure (SMILES): CC1(C)CCC2=C(O1)c1ccccc1C(=O)C2=O [beta-Lapachone]
- % of the SCH23390 effect [1, 5]: 86%
